# Several values for one entry are separate records, joined by “and”; a condition that tells them apart may be missing. Identical values can stand only once. Entries after “also recorded” stand apart in the source; their conditions may differ.
# Assays:
# [1] = system: CD20 and mCRPs (CD46, CD55, CD59) in RCHO-resistant NU-DUL-1 cells; assay: FACS analysis of membrane expression of CD46, CD55, CD59 and CD20; format: cell-based, human
# Procedure: (§1) After being washed with PBS, cells were incubated with fluorescein-conjugated antibody for 30 minutes, followed by washing and resuspension of cells in PBS. Flow cytometry analysis was performed on a cytomics FC500 MPL instrument (Beckman Coulter, Inc., Brea, Calif.) and FlowJo software (Ashland, Inc., OR) was used for analysis. Cells were then sorted according to their relative fluorescence intensity by using a MoFlo XDP sorter (Beckman Coulter Inc., Brea, Calif.).
# [2] = system: CD20 and mCRPs (CD46, CD55, CD59) in RCHO-resistant LY8 cells; assay: as above; format: cell-based, human
# Procedure: as §1
# NU-DUL-1-RCHO cells = details: 48 hours; for cytotoxicity (induction of cell death), inhibitor used alone: inhibitor alone at increasing concentrations; for reversal of resistance to CHO (cytotoxicity of CHO), inhibitor co-treated with CHO: inhibitor at increasing concentrations with CHO
# Procedure: (§2) Further, we constructed LY8 and NU-DUL-1 cells resistant to chemotherapeutic drugs. Briefly, LY8-ORI and NU-DUL-1-ORI cells were treated with doxorubicin (Selleck Chemicals, Houston, Tex.) and vincristine (Selleck Chemicals, Houston, Tex.) at a clinical ratio of 50:1.4 by increasing the concentration. […] These cells were then treated with 2 μg/mL of 4-hydroperoxycyclophosphamide (4-HC) (Santa Cruz Biotechnology, Inc., Santa Cruz, Calif.) every 21 days for 3 cycles. The obtained CHO-resistant cells are referred to as LY8-CHO and NU-DUL-1-CHO, respectively. CHO-resistant cells were treated with doxorubicin, vincristine, and 4-HC every 22 days to maintain drug tolerance to CHO. […] To maintain RCHO resistance, LY8-RCHO cells and NU-DUL-1-RCHO cells were treated with 32 μg/mL of rituximab containing 20% (v/v) of NHS every 22 days, followed by treatment with doxorubicin, vincristine, and 4-HC. After 48 hours of treatment with doxorubicin, vincristine and 4-HC, drug resistance to CHO and RCHO was determined by a series of CCK-8 assays.
# (§3) Cells were seeded in a 96-well plate at a density of 1×10^4/100 μL/well. Cells were pretreated with IPI-145, abemaciclib, AZD4547, PF-573228, R788, or saracatinib at increasing concentrations with or without CHO for 48 hours prior to performing CytoTox-Glo™ cytotoxicity assay. We performed cytotoxicity assay by using a CytoTox-Glo™ cytotoxicity assay kit (Promega Inc., Madison, Wis.) according to their instructions. Briefly, 50 μL of CytoTox-Glo™ cytotoxicity assay reagent was added to all wells, mixed by orbital shaking, and then incubated for 15 minutes at room temperature. Luminescence of experimental dead cells was detected with a Synergy HT microplate reader (BioTek, Biotek Winooski, Minn.), wherein 50 μL of lysate was added to all wells, mixed and incubated for 15 minutes at room temperature prior to detection of total luminescence. Cytotoxicity was calculated according to the following formula: Cytotoxicity (%)=Experimental dead cell luminescence/Total luminescence×100%.
# LY8-RCHO cells [3] = details: 48 hours; for cytotoxicity (induction of cell death), inhibitor used alone: inhibitor alone at increasing concentrations; for reversal of resistance to CHO (cytotoxicity of CHO), inhibitor co-treated with CHO: inhibitor at increasing concentrations with CHO
# Procedure: as §2, §3
# LY8-RCHO cells [4] = assay: CDC assay (rituximab-mediated complement-dependent cytotoxicity); format: cell-based, human; details: pre-treated with inhibitor 24 hours, then rituximab and 20% NHS 2 hours
# Procedure: We constructed LY8 cells and NU-DUL-1 cells that are resistant to rituximab-mediated complement-dependent cytotoxicity (CDC). Briefly, original LY8 (LY8-ORI) cells and original NU-DUL-1 (NU-DUL-1-ORI) cells were treated with rituximab containing 20% (v/v) of NHS (Roche, Basel, Switzerland) with a concentration of gradually increasing from 4 μg/mL to 32 μg/mL to construct drug-resistant cells. […] Cytolysis induced by CDC was evaluated by detection of positive cells stained with propidium iodide (PI) through fluorescence activated cell sorting (FACS).
# LY8-RCHO cells [5] = assay: EdU cell proliferation assay; format: cell-based, human; details: 1 μM
# Procedure: RCHO-resistant DLBCL cells were pretreated with duvelisib, abemaciclib, or AZD4547 at a concentration of 1 μM for 48 or 120 hours prior to EdU assay. For 120 hours of the study, the medium was replaced with a fresh medium containing 1 μM of inhibitor at 48 hours. EdU cell proliferation assay was performed by using a cell-light EdU Apollo643 in vitro flow cytometry kit (RiboBio Inc., Guangzhou, China) according to its instructions. Next, we assayed EdU staining positive cells on a Cytomics FC500 MPL flow cytometer (Beckman Coulter, Brea, Calif.).
# LY8-RCHO-Luc cells = assay: Transplantation model, bioluminescence tumor growth and survival; format: in vivo; details: SCID mice bearing LY8-RCHO-Luc cells
# From the text: Construction of a transplantation model: we transduced LY8-RCHO cells and NU-DUL-1-RCHO cells with lentiviruses overexpressing the firefly luciferase gene to generate stable cells expressing firefly luciferase, referred to as LY8-RCHO-Luc cells and NU-DUL-1-RCHO-Luc cells, respectively. 8-week-old female SCID mice were purchased from SLAC (Shanghai laboratory animal center). The LY8-RCHO-Luc cells and NU-DUL-1-RCHO-Luc cells were resuspended in PBS prior to intraperitoneal injection of 1.5×10^7 cells per mouse. After intraperitoneal injection of the LY8-RCHO-Luc cells, mice were randomized into 6 groups (7 mice in every group) and given saline, R-CHOP, duvelisib, abemaciclib, R-CHOP+duvelisib, and R-CHOP+abemaciclib, respectively. Mice inoculated with the NU-DUL-1-RCHO-Luc cells were randomly divided into 6 groups (7 mice in every group), and were given saline, R-CHOP, duvelisib, AZD4547, R-CHOP+duvelisib, and R-CHOP+AZD4547, respectively. The drug dosing method based on one course of clinical use is shown in Table 1; the R-CHOP regimen was clinically used to treat DLBCL, while duvelisib, abemaciclib, and AZD4547 were tested in clinical trials (associated NCT numbers are NCT02576275, NCT01739309, and […], respectively). Tumor growth was monitored by bioluminescence at day 50 and day 90 after inoculation. For in vivo luminescence imaging, D-luciferin (Promega, Madison, Wis.) was intraperitoneally injected into mice (150 mg/kg). After 10 minutes, the mice were anesthetized by intraperitoneal injection of pentobarbital (50 mg/kg) and then their bioluminescence intensity was examined by using an In Vivo MS FX PRO system (Bruker Corporation, Billerica, Mass.). Luminescence images were captured with an exposure time of 30 seconds and the signal intensity of the tumor was measured by using Bruker MI software. The survival time of each mouse was recorded. Surviving mice were euthanized and dissected 120 days after inoculation and no intraperitoneal tumors were found. Tumor tissue was collected from moribund mice and fixed with 4% formalin. All animal experiments were performed in strict accordance with the experiment protocol approved by the animal ethics committee of Shanghai school of medicine of Fudan university.
# [6] = system: AKT phosphorylation, SOX2, CDK6 and CSC-associated molecules in LY8-RCHO cells; assay: Immunoblot analysis; format: cell-based, human
# LY8-RCHO cells [7] = assay: Aldefluor analysis (ALDH1+ cells); format: cell-based, human
# Procedure: ALDH1 is a selectable marker for a variety of normal and cancer stem cells, including hematopoietic stem cells. Therefore, we assessed the number of cancer stem cells in hematopoietic malignancies by detecting ALDH1 positive cells. As previously described, we used an ALDEFLUOR™ kit (StemCell Technologies, Vancouver, BC, CA) to detect populations with high ALDH1 activity. Briefly, 1×10^6 cells were suspended in 1 mL of assay buffer containing 1 μM of BAAA, a substrate of […]. Suspended cells were then equally divided into two samples, one as a negative control and the other as a test sample. To form the negative control, […] of DEAB, a specific ALDH inhibitor, was added to one equally-divided sample. Cells were then incubated at 37° C. for 30 minutes prior to flow cytometry analysis.
smiles,measurement,setting,value
NC1(c2ccc(-c3nc4ccn5c(=O)[nH]nc5c4cc3-c3ccccc3)cc2)CCC1 [MK-2206],membrane expression of CD20,[1],significantly reduced
same,"membrane expression of the other three mCRPs (CD46, CD55, CD59)",[1],the other three mCRPs did not
same,membrane expression of CD20,[2],significantly reduced
same,"membrane expression of the other three mCRPs (CD46, CD55, CD59)",[2],the other three mCRPs did not
CN1CCN(CCOc2cc(OC3CCOCC3)c3c(Nc4c(Cl)ccc5c4OCO5)ncnc3c2)CC1 [saracatinib],"cytotoxicity (induction of cell death), inhibitor used alone",NU-DUL-1-RCHO cells,negligible effect on direct induction of cell death
same,"reversal of resistance to CHO (cytotoxicity of CHO), inhibitor co-treated with CHO",NU-DUL-1-RCHO cells,significantly reversed resistance of RCHO-resistant cells to CHO
same,"cytotoxicity (induction of cell death), inhibitor used alone",LY8-RCHO cells [3],negligible effect on direct induction of cell death
same,"reversal of resistance to CHO (cytotoxicity of CHO), inhibitor co-treated with CHO",LY8-RCHO cells [3],significantly reversed resistance of RCHO-resistant cells to CHO
CCN1CCN(Cc2ccc(Nc3ncc(F)c(-c4cc(F)c5nc(C)n(C(C)C)c5c4)n3)nc2)CC1 [abemaciclib],effect on resistance to R-mediated CDC,LY8-RCHO cells [4],failed to reverse resistance to R-mediated CDC
same,"cytotoxicity (induction of cell death), inhibitor used alone",LY8-RCHO cells [3],negligible effect on induction of cell death; also recorded: only negligible cytotoxicity on drug-resistant cells
same,"reversal of resistance to CHO (cytotoxicity of CHO), inhibitor co-treated with CHO",LY8-RCHO cells [3],restored sensitivity of RCHO-resistant cells to CHO; also recorded: significantly enhanced cytotoxicity of CHO
same,cell proliferation (EdU incorporation),LY8-RCHO cells [5]; 48 hours,prevented growth of LY8-RCHO cells at both 48 hours and 120 hours
same,cell proliferation (EdU incorporation),LY8-RCHO cells [5]; 120 hours,prevented growth of LY8-RCHO cells at both 48 hours and 120 hours
same,day of death of the two mice that died,"LY8-RCHO-Luc cells; inhibitor combined with R-CHOP, 7 mice per group",62 days and 78 days
same,tumor growth (total photon flux),"LY8-RCHO-Luc cells; inhibitor combined with R-CHOP, dosing per Table 1",significantly inhibited tumor growth
same,survival,"LY8-RCHO-Luc cells; inhibitor combined with R-CHOP, experiment ended at day 120",prolonged the survival rate compared with R-CHOP or an inhibitor alone
same,survival,"LY8-RCHO-Luc cells; regimen or inhibitor used alone, vs saline, dosing per Table 1",neither duvelisib nor abemaciclib alone inhibited tumor growth or prolonged the survival rate
same,tumor growth (total photon flux),"LY8-RCHO-Luc cells; regimen or inhibitor used alone, vs saline, dosing per Table 1, day 50 and 90",neither duvelisib nor abemaciclib alone inhibited tumor growth or prolonged the survival rate
same,"levels of CSC-associated molecules (OCT4, NANOG, KLF4, c-MYC, CD34, CD133)",[6],had no effect on its levels but resulted in a reduction in C-MYC
same,proportion of ALDH1+ cells (CSCs),LY8-RCHO cells [7],had no effect on ALDH1+ subpopulations in LY8-RCHO cells
COc1cc(Nc2ncc(F)c(Nc3ccc4c(c3)N(COP(=O)(O)O)C(=O)C(C)(C)O4)n2)cc(OC)c1OC [R788],"cytotoxicity (induction of cell death), inhibitor used alone",NU-DUL-1-RCHO cells,negligible effect on direct induction of cell death
same,"reversal of resistance to CHO (cytotoxicity of CHO), inhibitor co-treated with CHO",NU-DUL-1-RCHO cells,significantly reversed the resistance of RCHO-resistant cells to CHO
same,"cytotoxicity (induction of cell death), inhibitor used alone",LY8-RCHO cells [3],negligible effect on direct induction of cell death
same,"reversal of resistance to CHO (cytotoxicity of CHO), inhibitor co-treated with CHO",LY8-RCHO cells [3],significantly reversed the resistance of RCHO-resistant cells to CHO
CS(=O)(=O)c1cccc(CNc2nc(Nc3ccc4c(c3)CCC(=O)N4)ncc2C(F)(F)F)c1 [PF-573228],"cytotoxicity (induction of cell death), inhibitor used alone",LY8-RCHO cells [3],negligible effect on direct induction of cell death
same,"reversal of resistance to CHO (cytotoxicity of CHO), inhibitor co-treated with CHO",LY8-RCHO cells [3],significantly reversed resistance of RCHO-resistant cells to CHO
